The source made the active and inactive calls. The calls are words filed in the database; no cut-off is given here.
Columns and labels:
[1] = test system: MDA-MB-231; assay: Antitumour activity against human MDA-MB-231 cells xenografted in BALB/c nude mouse assessed as tumour growth inhibition at 30 mg/kg, ip administered once for every other day for 20 days relative to control; type: functional; conditions: MDA-MB-231, ip, 480 h, time 20 day, read-out: TGI
[2] = test system: MDA-MB-231; assay: Induction of apoptosis in human MDA-MB-231 cells assessed as decrease in Bcl-2 level at 0.56 to 5 uM measured after 24 hrs by Western blot analysis; type: functional, cell-based; conditions: dose 0.56-5 µM
[3] = test system: MCF7; assay: Cell cycle arrest in human MCF-7 cells assessed as downregulation of cyclin D3 expression by Western blot analysis; type: functional, cell-based
[4] = Selective index, ratio of IC50 for human 293T cells to IC50 of MDA-MB-231 cells; type: toxicity; conditions: 293T cells versus MDA-MB-231 cells, read-out: Selectivity Index
[5] = test system: MCF7; assay: Induction of apoptosis in human MCF-7 cells assessed as upregulation of cleaved poly(ADP-ribose) polymerase level at 1.67 to 15 uM measured after 24 hrs by Western blot analysis; type: functional, cell-based; conditions: dose 1.67-15 µM
[6] = test system: MDA-MB-231; assay: Antitumour activity against human MDA-MB-231 cells xenografted in BALB/c nude mouse assessed as downregulation of Bcl-2 level at 15 to 30 mg/kg, ip administered once for every other day for 20 days by Western blot analysis; type: functional, organism-based; conditions: dose 15-30 mg/kg, time 20.0 day
[7] = test system: MCF7; assay: Cell cycle arrest in human MCF-7 cells assessed as downregulation of CDK6 expression by Western blot analysis; type: functional, cell-based
[8] = test system: MDA-MB-231; assay: Antitumour activity against human MDA-MB-231 cells xenografted in BALB/c nude mouse assessed as upregulation of Bax level by western blot; type: functional, cell-based
[9] = test system: MCF7; assay: Induction of mitochondrial apoptosis in human MCF-7 cells assessed as membrane blebbing by Hoechst 33258 staining based fluorescence microscopic assay; type: functional, cell-based
[10] = test system: MCF7; assay: Cell cycle arrest in human MCF-7 cells assessed as downregulation of CDK2 expression by Western blot analysis; type: functional, cell-based
[11] = test system: MDA-MB-231; assay: Inhibition of PI3K in human MDA-MB-231 cells assessed as Akt phosphorylation by Western blot analysis; type: cell-based
[12] = test system: MCF7; assay: Cell cycle arrest in human MCF-7 cells assessed as upregulation of p21 level by Western blot analysis; type: functional, cell-based
[13] = Selective index, ratio of IC50 for human 293T cells to IC50 of MCF-7 cells; type: toxicity; conditions: 293T cells versus MCF-7 cells, read-out: Selectivity Index
[14] = test system: MCF7; assay: Cell cycle arrest in human MCF7 cells assessed as accumulation of cells at G2/M phase at 15 uM measured after 24 hrs by propidium iodide staining based flow cytometry (reference value: 31%); type: functional
[15] = test system: MDA-MB-231; assay: Induction of mitochondrial apoptosis in human MDA-MB-231 cells assessed as early apoptotic cells at 5 uM measured after 24 hrs by FITC -annexin V/PI double staining based flow cytometric analysis (reference value: 1.2%); type: functional
[16] = test system: MDA-MB-231; assay: Induction of apoptosis in human MDA-MB-231 cells assessed as increase in production of cleaved caspase-9 at 0.56 to 5 uM measured after 24 hrs by Western blot analysis; type: functional, cell-based; conditions: dose 0.56-5 µM
[17] = test system: MCF7; assay: Antiproliferative activity against human MCF-7 cells assessed as effect on cell viability at 1.67-15 uM for 24 hrs measured by MTT assay; type: functional, cell-based
[18] = test system: MDA-MB-231; assay: Induction of mitochondrial apoptosis in human MDA-MB-231 cells assessed as accumulation of reactive oxygen species by flow cytometry; type: functional, cell-based
[19] = test system: MDA-MB-231; assay: Induction of apoptosis in human MDA-MB-231 cells assessed as increase in production of cleaved caspase-3 at 0.56 to 5 uM measured after 24 hrs by Western blot analysis; type: functional, cell-based; conditions: dose 0.56-5 µM
[20] = test system: MCF7; assay: Induction of apoptosis in human MCF-7 cells assessed as increase in Bax protein expression at 1.67 to 15 uM measured after 24 hrs by Western blot analysis; type: functional, cell-based; conditions: dose 1.67-15 µM
[21] = test system: MDA-MB-231; assay: Cytotoxicity against human MDA-MB-231 cells measured by MTT assay; type: functional, cell-based
[22] = test system: MDA-MB-231; assay: Induction of apoptosis in human MDA-MB-231 cells assessed as increase in Bax protein expression at 0.56 to 5 uM measured after 24 hrs by Western blot analysis; type: functional, cell-based; conditions: dose 0.56-5 µM
[23] = test system: MCF7; assay: Effect on Akt expression in human MCF7 cells by Western blot analysis; type: functional, cell-based
[24] = test system: MCF7; assay: Cell cycle arrest in human MCF-7 cells assessed as accumulation of cells at G0/G1 phase at 15 uM measured after 24 hrs by propidium iodide staining based flow cytometry (reference value: 51.7%); type: functional
[25] = test system: MCF7; assay: Cell cycle arrest in human MCF-7 cells assessed as downregulation of cyclin D1 expression by Western blot analysis; type: functional, cell-based
[26] = test system: MCF7; assay: Induction of mitochondrial apoptosis in human MCF7 cells assessed as early apoptotic cells at 15 uM measured after 24 hrs by FITC -annexin V/PI double staining based flow cytometric analysis (reference value: 3.3%); type: functional
[27] = test system: MDA-MB-231; assay: Antitumour activity against human MDA-MB-231 cells xenografted in BALB/c nude mouse assessed as downregulation of cyclin E1 level at 15 to 30 mg/kg, ip administered once for every other day for 20 days by Western blot analysis; type: functional, organism-based; conditions: dose 15-30 mg/kg, time 20.0 day
[28] = test system: MDA-MB-231; assay: Antiproliferative activity against human MDA-MB-231 cells measured by MTT assay; type: functional, cell-based
[29] = test system: MDA-MB-231; assay: Antitumour activity against human MDA-MB-231 cells xenografted in BALB/c nude mouse assessed as upregulation of p21 level at 15 to 30 mg/kg, ip administered once for every other day for 20 days by Western blot analysis; type: functional, organism-based; conditions: dose 15-30 mg/kg, time 20.0 day
[30] = test system: MDA-MB-231; assay: Cell cycle arrest in human MDA-MB-231 cells assessed as downregulation of cyclin D1 expression by Western blot analysis; type: functional, cell-based
[31] = test system: MDA-MB-231; assay: Antitumour activity against human MDA-MB-231 cells xenografted in BALB/c nude mouse assessed as upregulation of cleaved caspase-3 level at 15 to 30 mg/kg, ip administered once for every other day for 20 days by Western blot analysis; type: functional, organism-based; conditions: dose 15-30 mg/kg, time 20.0 day
[32] = test system: MDA-MB-231; assay: Induction of apoptosis in human MDA-MB-231 cells assessed as upregulation of cleaved poly(ADP-ribose) polymerase level at 0.56 to 5 uM measured after 24 hrs by Western blot analysis; type: functional, cell-based; conditions: dose 0.56-5 µM
[33] = test system: MDA-MB-231; assay: Induction of mitochondrial apoptosis in human MDA-MB-231 cells assessed as early apoptotic cells at 5 uM measured after 24 hrs by FITC -annexin V/PI double staining based flow cytometric analysis (reference value: 2.2%); type: functional
[34] = test system: MCF7; assay: Cell cycle arrest in human MCF7 cells assessed as accumulation of cells at S phase at 15 uM measured after 24 hrs by propidium iodide staining based flow cytometry (reference value: 16.8%); type: functional
[35] = test system: MDA-MB-231; assay: Cell cycle arrest in human MDA-MB-231 cells assessed as accumulation of cells at G0/G1 phase at 5 uM measured after 24 hrs by propidium iodide staining based flow cytometry (reference value: 44%); type: functional
[36] = test system: MDA-MB-231; assay: Cell cycle arrest in human MDA-MB-231 cells assessed as accumulation of cells at G2/M phase at 5 uM measured after 24 hrs by propidium iodide staining based flow cytometry (reference value: 27.5%); type: functional
[37] = test system: MDA-MB-231; assay: Induction of mitochondrial apoptosis in human MDA-MB-231 cells assessed as chromatin shrinkage by Hoechst 33258 staining based fluorescence microscopic assay; type: functional, cell-based

CCCC/C=C/CCCCCCCCCC1(O)CC(=O)c2c(O)c(C)c(O)c(C)c2O1 (configuration not stated)
inhibition in vivo at 30 mg/kg [1]: 79.3%
Activity [2]: Dose-Dependent Effect
Activity [3]: Dose-Dependent Effect
selectivity ratio [4]: 5.35
Activity [5]: Active
Activity [6]: Active
Activity [7]: Dose-Dependent Effect
Activity [8]: Active
Activity [9]: Active
Activity [10]: Dose-Dependent Effect
inhibition [11]: Dose-Dependent Effect
Activity [12]: Dose-Dependent Effect
selectivity ratio [13]: 2.08
Activity [14]: 22.7%
Activity [15]: 4.8%
Activity [16]: Dose-Dependent Effect
Activity [17]: inactive
Activity [18]: Active
Activity [19]: Dose-Dependent Effect
Activity [20]: Dose-Dependent Effect
IC50 [21]: 6.79 µM
Activity [22]: Dose-Dependent Effect
Activity [23]: inactive
Activity [24]: 66.8%
Activity [25]: Dose-Dependent Effect
Activity [26]: 4.7%
Activity [27]: Active
IC50 [28]: 6.79 µM
Activity [29]: Active
Activity [30]: Dose-Dependent Effect
Activity [31]: Active
Activity [32]: Active
Activity [33]: 6.1%
Activity [34]: 10.3%
Activity [35]: 62.4%
Activity [36]: 18.5%
Activity [37]: Active

Source: ChEMBL document CHEMBL5030514, “Discovery of Anti-TNBC Agents Targeting PTP1B: Total Synthesis, Structure-Activity Relationship, In Vitro and In Vivo Investigations of Jamunones” (J Med Chem, 2021)
